# Patent US5942494A, “Stimulation of gene expression and synthesis of heat shock protein 72/73 (HSP 70)” (The Trustees of Columbia University in the City of New York, priority 1996, dated 1999)
# Peptide text beside a SMILES is read from it.
# Key:
# [1] = tested on: cysteine protease, serine protease, trypsin or chymotrypsin; settings: even upon extended exposure, Ward, et al., 1995, Fenteany; cited from earlier work
# [2] = tested on: Hsp70; experiment: Hsp70 levels by denaturing immunoprecipitation of [3H]-leucine radiolabeled HepG2 cells; type: cell-based, human
# Experimental: The HepG2 cell culture conditions were maintained as previously described (Dixon, et al., 1991). The cells were seeded into collagen-pre-coated dishes or six-well tissue culture plates and grown in complete medium containing minimum essential medium (MEM) with 0.1 mM nonessential amino acids, 1.0 mM sodium pyruvate, penicillin/streptomycin, and 10% fetal bovine serum. Cells were fed fresh complete medium every 3 days and maintained in a 5% CO2 incubator. All experiments were performed by using exponentially growing cells at 90-95% confluency. For heat shock treatment, the dishes were sealed with Parafilm and immersed in a water bath at 42° C. for indicated durations of time. Cells were incubated with ALLN alone at indicated concentrations or combined with other chemicals at 37° C. Cells were also incubated with different protease inhibitors alone at indicated concentrations or combined with other chemicals at 37° C.
# (§1) HepG2 cells were preincubated for 4 hours in serum-free MEM and then radiolabeled with ^3 H-Leucine (150 μCi/ml) in a serum-free, leucine-free medium. Preincubation and labeling media each contained either 1.5% bovine serum albumin (BSA) alone, or BSA plus ALLN (40 μg/ml except as otherwise indicated), or BSA plus other protease inhibitors at concentrations indicated in the figure legends. At the indicated times, cells were removed from the 37° C. incubator and placed on ice, washed with cold phosphate-buffer saline (PBS) twice and lysed with lysis buffer containing 1% Triton X-100 (TX100), 1% deoxycholic acid (DOC) and 0.1% SDS in PBS containing proteinase inhibitors: 2 mM phenylmethylsulfonyl fluoride (PMSF); 2 μg/ml ALLN; 2 μg/ml leupeptin; and 2 μg/ml aprotinin. After a 30 min. incubation with lysis buffer at 4° C., the lysates were centrifuged at 14,000 g in a microcentrifuge for 5 min., and the supernatants were adjusted to 1% SDS concentration and boiled for 5 min. to denature the proteins. 1% TX100 was then added to dilute the lysates to a final concentration of 0.1% SDS. Cell lysates containing equal amounts of trichloroacetic acid (TCA)-insoluble radioactivity were used for immunoprecipitations by incubating with individual monoclonal antibody (1 μg/ml) for 2.5 hours at 4° C. Protein-A Sepharose 4B was added afterwards and the lysates incubated for another 1.5 hours at 4° C. to collect the immunocomplexes. After washing four times with 1×NET buffer (containing 0.5% TX100, 0.1% SDS), the immunocomplexes were mixed with sample buffer and boiled for 5 min. Following centrifugation, the supernatants were aliquoted for scintillation counting and for 3-15% gradient polyacrymide gel electrophoresis (SDS-PAGE) . The gels were later subjected to fluorography. All values are presented as the mean ± S.D. from three individual experiments except as otherwise indicated.
# Denaturing immunoprecipitation was chosen because Hsp70 is a major cytosolic chaperone protein and it is co-immunoprecipitated with a number of other proteins under non-denaturingconditions (Beckmann, et al., 1990; Zhou, et al., 1995).
# [3] = tested on: HepG2 cells; experiment: Total incorporation of radiolabel (TCA cpm) as indicator of cell toxicity, HepG2; type: cell-based, human; settings: HepG2, 4 hours; MG132 10 or 30 μM; lactacystin 10 μM
# Experimental: as §1
# [4] = tested on: proteasomes; settings: Rock, et al., 1994; cited from earlier work
# [5] = tested on: calpain; settings: Rock, et al., 1994; cited from earlier work
# [6] = tested on: apoB; settings: Sakata, et al., 1993, unpublished data; cited from earlier work
# [7] = tested on: 3-hydroxy-3-methylglutaryl-coenzyme A (HMG-CoA) reductase; settings: Inoue, et al., 1991; cited from earlier work
# [8] = biological target: cathepsin B (Homo sapiens, UniProt P07858); settings: Rock, et al., 1994; cited from earlier work
smiles,measurement,setting,value
CC(=O)N[C@@H](CSC(=O)[C@]1([C@@H](O)C(C)C)NC(=O)[C@H](C)[C@@H]1O)C(=O)O [lactacystin],"Effect on cysteine protease, serine protease, trypsin or chymotrypsin",[1],no detectable effect
same,Induction of Hsp70 levels by proteasome inhibitors,"[2]; HepG2, 4 hours, MG132 10 μM or 30 μM, lactacystin 10 μM, 30 min radiolabeling",induced Hsp70 levels dramatically
same,Toxicity to the cells (TCA-precipitable radioactivities),[3],without obvious toxicity
"CSCC[C@@H](C=O)NC(=O)[C@H](CC(C)C)NC(=O)[C@H](CC(C)C)NC(C)=O [ALLM, N-acetyl-leucyl-leucyl-methioninal] (Ac-Leu-Leu-Met-aldehyde)",Inhibition of proteasomes,[4],potent inhibitors
same,Activity against calpain,[5],significant activities
same,Protection of apoB,[6],less effectively
same,Ability to induce Hsp70 levels compared with ALLN,"[2]; HepG2, 40 μg/ml, 4 hours",less ability to induce Hsp70 levels
same,Induction of Hsp70 by protease inhibitors,"[2]; HepG2, 4 hours pre-treatment, ALLN, ALLM 40 μg/ml, leupeptin, pepstatin A 50 μg/ml, E-64d 25 μg/ml, PMSF 1 mM, aprotinin 100 KIU/ml, Benz 1 mM, CIP 200 μM",significantly induce
same,Protection of HMG-CoA reductase,[7],less effectively
same,Activity against cathepsin B,[8],significant activities
